These results are taken from patent US4310518A, “Cyclic hexapeptide somatostatin analogs” (Merck & Co., Inc., priority 1980, dated 1982).

Square brackets hold non-standard residues; d marks the D form. Peptide text beside a SMILES is read from it. NMeF = CN[C@@H](Cc1ccccc1)C(=O)O; NMeI = CC[C@H](C)[C@H](NC)C(=O)O; NMeL = CN[C@@H](CC(C)C)C(=O)O; NMeA = CN[C@@H](C)C(=O)O; dNMeA = CN[C@H](C)C(=O)O; Sar = CNCC(=O)O

Assay [1] has as its system growth hormone release from rat pituitary cells. Description: In vitro test for the inhibition of growth hormone release in cultured rat pituitary cells. Particulars: multiples or fractions of the effect of somatostatin (=1), fiducial limits in parentheses, 4 hours incubation. Format: cell-based. The method, then: The instant cyclic hexapeptide analogs of somatostatin are tested and compared with the effects of somatostatin in an in vitro test for the inhibition of growth hormone. The test is described as follows:
Rat pituitaries were isolated according to the procedures of Vale and Grant "In vitro Pituitary Hormone Secretion Assay for Hypophysiotropic Substances" in Methods in Enzymology. Vol. XXXVII, eds. O'Malley, B. W. and Hardman, J. G. (Academic Press, Inc., New York) pp. 5-93 (1975).
After 4 days in culture, the cells were washed and incubated for 4 hours in Dulbecco-modified Eagle's medium in the presence or absence of graded doses of each analog of somatostatin. The medium was then collected for subsequent growth hormone determination by a double antibody radioimmunoassay for rat growth hormone."
The test results for some of the compounds of this invention are recorded below with the results for somatostatin listed first and given the arbitrary value of 1. The results for the instant compounds are given as multiples or fractions of the effect of somatostatin. The numbers in parentheses are the fiducial limits for the number preceding. The first of the instant compounds listed is the compound prepared in Examples 1-5. The compound is written slightly different, however, to conform to the order of the amino acids found in somatostatin.

Assay [2] has as its system pentagastrin evoked gastric secretion. Description: Inhibition of pentagastrin evoked gastric secretion in the chronic fistula dog. Format: in vivo. Particulars: Dose 0.8 μg/ml./min., infusion 0-60 min., relative to placebo; for Gastric Secretion % Inhibition Acid Concentration 0-30 / Gastric Secretion % Inhibition Vol. 0-30: 0-30 min; for Gastric Secretion % Inhibition Acid Concentration 30-60 / Gastric Secretion % Inhibition Vol. 30-60: 30-60 min; for Gastric Secretion % Inhibition Acid Concentration 60-90 / Gastric Secretion % Inhibition Vol. 60-90: 60-90 min; for Gastric Secretion % Inhibition Acid Concentration 90-120 / Gastric Secretion % Inhibition Vol. 90-120: 90-120 min; for Gastric Secretion % Inhibition Vol. 0-30 / Gastric Secretion % Inhibition Vol. 30-60 / Gastric Secretion % Inhibition Vol. 60-90 / Gastric Secretion % Inhibition Vol. 90-120: output volume. The method, then: The effects of the instant cyclichexapeptide analogs of somatostatin are determined by the following procedure.
Compounds were tested for their ability to inhibit pentagastrin evoked gastric secretion in the chronic fistula dog. Female beagle dogs with a chronic gastric fistula were given pentagastrin (2.5 μg./kg./hour, i.v. from -60 to 120 min.) and gastric outputs were collected via the fistula cannula. Samples were analyzed at 30 minute intervals for volume (ml.) and titratable acid (mEq/L) (Titration to pH 7 with 0.01 N NaOH); total acid output (mEq) was calculated as the production of output volume and acid concentration. Test compounds were infused at a constant rate from 0 to 60 minutes. Data have been expressed as percent change of total acid output relative to a placebo trial in the same animals.

For the compound `C[C@@H](O)[C@@H]1NC(=O)[C@H](CCCCN)NC(=O)[C@@H](Cc2c[nH]c3ccccc23)NC(=O)[C@H](Cc2ccccc2)NC(=O)[C@H](C)N(C)C(=O)[C@H](Cc2ccccc2)NC1=O` [Cyclo(D-Trp-Lys-Thr-Phe-N-Me-Ala-Phe)] (cyclo(F[NMeA]F[dW]KT)), the “Growth Hormone Release Inhibition In Vitro” value in assay [1] is 4.38(2.15-11.90). For the same compound, in assay [2], the “Gastric Secretion % Inhibition Acid Concentration 0-30” value is given as 15%, the “Gastric Secretion % Inhibition Acid Concentration 30-60” value was 41%, the “Gastric Secretion % Inhibition Acid Concentration 60-90” value is 47% and the “Gastric Secretion % Inhibition Acid Concentration 90-120” value is recorded as 48%. Further, in assay [2], the “Gastric Secretion % Inhibition Vol. 0-30” value came to 91%, the “Gastric Secretion % Inhibition Vol. 30-60” value turned out to be 92%, the “Gastric Secretion % Inhibition Vol. 60-90” value was found to be 90% and the “Gastric Secretion % Inhibition Vol. 90-120” value was 84%.

Turning to “Cyclo--(N--Me--Ala--O--Phe--D-Trp-- Lys--Val--L--Trp)”, the “Growth Hormone Release Inhibition In Vitro” value in assay [1] is 22.9(15.0-33.6).

As for `C[C@@H]1C(=O)N[C@@H](Cc2ccccc2)C(=O)N[C@H](Cc2c[nH]c3ccccc23)C(=O)N[C@@H](CCCCN)C(=O)N[C@@H]([C@@H](C)O)C(=O)N[C@@H](Cc2ccccc2)C(=O)N1C` [Cyclo(N--Me--D-Ala-- Phe--D-Trp-- Lys--Thr--Phe)] (cyclo(F[dNMeA]F[dW]KT)), the “Growth Hormone Release Inhibition In Vitro” value in assay [1] is 2.13(0.83-6.00). Moreover, in assay [2], the “Gastric Secretion % Inhibition Acid Concentration 0-30” value stood at 12%, the “Gastric Secretion % Inhibition Acid Concentration 30-60” value was determined as 34%, the “Gastric Secretion % Inhibition Acid Concentration 60-90” value stood at 9% and the “Gastric Secretion % Inhibition Acid Concentration 90-120” value is given as 0%. In assay [2], the “Gastric Secretion % Inhibition Vol. 0-30” value was determined as 50%, the “Gastric Secretion % Inhibition Vol. 30-60” value is given as 84%, the “Gastric Secretion % Inhibition Vol. 60-90” value is reported as 0% and the “Gastric Secretion % Inhibition Vol. 90-120” value is given as 0%.

With `C[C@H]1C(=O)N[C@@H](Cc2c[nH]cn2)C(=O)N[C@H](Cc2c[nH]c3ccccc23)C(=O)N[C@@H](CCCCN)C(=O)N[C@@H](CO)C(=O)N[C@@H](Cc2ccc(O)cc2)C(=O)N1C` [Cyclo(N--Me--Ala--His--D-Trp-- Lys--Ser--Tyr)] (cyclo(H[dW]KSY[NMeA])), in assay [1], the “Growth Hormone Release Inhibition In Vitro” value was 0.38(0.16-0.75).

Regarding `C[C@@H](O)[C@@H]1NC(=O)[C@H](CCCCN)NC(=O)[C@@H](Cc2c[nH]c3ccccc23)NC(=O)[C@H](Cc2ccccc2)NC(=O)[C@H](Cc2ccccc2)N(C)C(=O)[C@H](Cc2ccccc2)NC1=O` [Cyclo(N--Me--Phe--Phe--D-Trp-- Lys--Thr--Phe)] (cyclo(F[NMeF]F[dW]KT)), the “Growth Hormone Release Inhibition In Vitro” value in assay [1] was 13.3(9.6-18.1).

On to `CC(C)[C@@H]1NC(=O)[C@H](CCCCN)NC(=O)[C@@H](Cc2c[nH]c3ccccc23)NC(=O)[C@H](Cc2ccc(O)cc2)NC(=O)[C@H](C)N(C)C(=O)[C@H](Cc2ccccc2)NC1=O` [Cyclo--(N--Me--Ala--Tyr--D-Trp-- Lys--Val--Phe)], for which the “Growth Hormone Release Inhibition In Vitro” value in assay [1] is listed as 52(35-75).

As to “Cyclo--(N--Me--Ala--O--I--Phe--D-Trp-- Lys--Val--Phe)”, the “Growth Hormone Release Inhibition In Vitro” value in assay [1] is 13.9(9.5-20.0).

Consider `CC(C)[C@@H]1NC(=O)[C@H](CCCCN)NC(=O)[C@@H](Cc2c[nH]c3ccccc23)NC(=O)[C@H](Cc2ccc(O)cc2)NC(=O)[C@H](C)N(C)C(=O)[C@H](Cc2c[nH]c3ccccc23)NC1=O` [Cyclo--(N--Me--Ala--Tyr--D-Trp-- Lys--Val--Trp)] (cyclo(KVW[NMeA]Y[dW])), for which, in assay [1], the “Growth Hormone Release Inhibition In Vitro” value is reported as 26.9(17.2-40.3).

With `CC(C)[C@@H]1NC(=O)[C@H](CCCCN)NC(=O)[C@@H](Cc2c[nH]c3ccccc23)NC(=O)[C@H](Cc2ccc(O)cc2)NC(=O)[C@H](C)N(C)C(=O)[C@@H](Cc2ccccc2)NC1=O` [Cyclo--(N--Me--Ala--Tyr--D-Trp-- Lys--Val--D-Phe)], in assay [1], the “Growth Hormone Release Inhibition In Vitro” value was 5.0(3.12-8.17).

In the case of `C[C@@H](O)[C@@H]1NC(=O)[C@H](CCCCN)NC(=O)[C@@H](Cc2c[nH]c3ccccc23)NC(=O)[C@H](Cc2ccccc2)NC(=O)CN(C)C(=O)[C@H](Cc2ccccc2)NC1=O` [Cyclo--(Sar--Phe--D-Trp-- Lys--Thr--Phe)] (cyclo(F[Sar]F[dW]KT)), the “Growth Hormone Release Inhibition In Vitro” value in assay [1] is on record as 1.47(0.93-2.3).

In the case of `CC[C@H](C)[C@H]1C(=O)N[C@@H](Cc2ccccc2)C(=O)N[C@H](Cc2c[nH]c3ccccc23)C(=O)N[C@@H](CCCCN)C(=O)N[C@@H]([C@@H](C)O)C(=O)N[C@@H](Cc2ccccc2)C(=O)N1C` [Cyclo(N--Me--Ile--Phe--D-Trp-- Lys--Thr--Phe)] (cyclo(F[NMeI]F[dW]KT)), the “Growth Hormone Release Inhibition In Vitro” value in assay [1] was 1.86(1.35-2.57).

In the case of “Cyclo--(N--Me--OABU--Phe--D-Trp-- Lys--Thr--Phe)”, in assay [1], the “Growth Hormone Release Inhibition In Vitro” value is 24.6(15.3-46.5).

Take `C[C@H]1C(=O)N[C@@H](Cc2c[nH]cn2)C(=O)N[C@H](Cc2c[nH]c3ccccc23)C(=O)N[C@@H](CCCCN)C(=O)N[C@@H](CO)C(=O)N[C@@H](Cc2c[nH]c3ccccc23)C(=O)N1C` [Cyclo--(N--Me--Ala--His--D-Trp-- Lys--Ser--Trp)] (cyclo(H[dW]KSW[NMeA])): the “Growth Hormone Release Inhibition In Vitro” value in assay [1] is listed as 1.45(0.9-2.06).

Turning to “Cyclo--(N--Me--Ala--Phe--D-Trp-- Lys--The--O--I--Phe)”, the “Growth Hormone Release Inhibition In Vitro” value in assay [1] is on record as 12.1(5.2-23.4).

Take `CC(C)C[C@H]1C(=O)N[C@@H](Cc2ccccc2)C(=O)N[C@H](Cc2c[nH]c3ccccc23)C(=O)N[C@@H](CCCCN)C(=O)N[C@@H]([C@@H](C)O)C(=O)N[C@@H](Cc2ccccc2)C(=O)N1C` [Cyclo(N--Me--Leu--Phe--D-Trp-- Lys--Thr--Phe)] (cyclo(F[NMeL]F[dW]KT)): the “Growth Hormone Release Inhibition In Vitro” value in assay [1] is reported as 0.49(0.19-0.98).
